Test results taken from patent US9458102B2 (priority 2011, dated 2016).

Tests used:
[1] = tested on: heteromeric rod CNG channels consisting of CNGA1 and CNGB1 subunits; test: CNG channel block at subsaturating cGMP (state dependence of block); assay type: cell-based; conditions: subsaturating cGMP (50 or 100 μM), +50 mV, normalized to KD at 2 mM cGMP
Text: KD values at saturating cGMP were corrected for ion accumulation. Solid lines indicate simulations for exclusive closed channel blockers, using KD/KDsat=(1−Fsat)/(1−FsatI/Imax), where Fsat is the estimated fraction of open heteromeric rod channels in saturating cGMP assuming Fsat=0.3 (a), 0.56 (b), or 0.78 (c). The dotted line is a simulation for a blocker with no preference for state, or KD/KDsat=1. The dashed line is a simulation for an exclusive open channel blocker, using KD/KDsat=(I/Imax)^−1.
The solid lines in FIG. 4 marked a, b, and c represent the expected relationship between KD and the fraction of closed channels for an exclusive closed channel blocker. Each of a, b, and c uses one estimate for the probability of closed heteromeric retinal rod channels at saturating cGMP. The simulations are described in the following references: Matthews G et al, J Physiol 403, 389-405 (1988); Taylor W R & Baylor D A, J Physiol 483 567-582 (1995); and Bucossi G et al, Biophys J 72, 1165-1181 (1997), all of which are incorporated by reference herein. The dotted line represents a simulation of a blocker with no preference as to conformational of the channel. The dashed line represents a simulation for an exclusive open channel blocker.
Recordings from inside-out excised patches were made 3-7 days after oocyte injection on an Axopatch 1D® amplifier (Axon Instruments, Foster City, Calif.). Briefly, oocyte vitelline membranes were removed in solution containing 200 mM K aspartate, 20 mM KCl, 1 mM MgCl2, 10 mM EGTA, 10 mM HEPES, pH 7.4. Oocytes were placed in a recording chamber in a solution containing 130 mM NaCl, 2 mM HEPES, 0.02 mM EDTA, 1 mM EGTA, pH 7.6, and borosilicate glass electrodes (1-3 MΩ) were filled with identical solution. Macroscopic currents were filtered at 1 kHz and sampled at 2 kHz using pCLAMP 8.0® software (Axon Instruments). Channels were either fully activated with 2 mM or partially activated with 50 and 100 μM cGMP. […] Glass syringes and Teflon tubing were used to minimize the binding of compounds to surfaces; concentrations passing through the perfusion system were verified by absorbance. Current traces were digitally filtered at 300 Hz (Gaussian) and averaged using Clampfit 8.2® software. Currents in the absence of cGMP were subtracted from all currents analyzed. KD values were determined and expressed as the mean±SD.

chymotrypsin = molecular target: T1, chymotrypsin (Bos taurus, UniProt P00766); test: In vitro hydrolysis by chymotrypsin; assay type: in vitro ADME
T1 construct: purchased Worthington Biochemical Co
Method: All enzymatic assays were performed with 50 μM compound in 0.1M phosphate buffer, pH 7.4, at 37° C. with stirring, unless otherwise noted. Butyrylcholinesterase stock solutions from human serum (Sigma, St. Louis, Mo.) were prepared at 100 U/mL in 0.1 M phosphate buffer, pH 7.4, and stored at −20° C. until use. Hydrolysis was monitored on an 8452A diode array spectrophotometer (Hewlett-Packard). Product peak wavelength absorption was immediately monitored upon addition of compound. Absorbances for complete hydrolysis were determined when there were no further detectable changes. […] All hydrolysis assays were performed in triplicate, and final rate constants are expressed as the mean±SD of the three individually determined rate constants. […] Activity of chymotrypsin (bovine, Worthington Biochemical Co., 190 μg/mL) was verified with 90 μM 4-nitrophenyl acetate in 0.1 M HEPES solution, pH 6.5, at 37° C. with stirring. Hydrolysis product was monitored at 404 nm for 10 min. Activity of proteinase K (from Engyodontium album, Sigma, 165 μg/mL) was verified with 16.5 mg/mL bovine serum albumin in 0.1 M phosphate buffer, pH 7.4, at 37° C. Samples were taken at time point increments up to 2 hours when the reaction reached completion. Samples were analyzed with 12% SDS-PAGE, stained with 0.1% Coomassie Blue.

proteinase K = molecular target: T2, proteinase K (Parengyodontium album, UniProt P06873); test: In vitro hydrolysis by proteinase K; assay type: in vitro ADME, Engyodontium album
T2 construct: purchased Sigma
T2 sequence (P06873 106-384): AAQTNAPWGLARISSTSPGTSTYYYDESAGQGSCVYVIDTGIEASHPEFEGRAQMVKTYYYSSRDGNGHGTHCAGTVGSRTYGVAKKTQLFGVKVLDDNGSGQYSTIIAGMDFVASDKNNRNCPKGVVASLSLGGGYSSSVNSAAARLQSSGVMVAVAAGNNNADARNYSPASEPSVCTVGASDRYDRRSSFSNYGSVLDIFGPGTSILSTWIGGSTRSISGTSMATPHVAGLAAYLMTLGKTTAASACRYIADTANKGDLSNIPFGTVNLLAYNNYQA
Method: Hydrolysis products of 4-nitrophenyl acetate and BSA were detected as positive controls.
All enzymatic assays were performed with 50 μM compound in 0.1M phosphate buffer, pH 7.4, at 37° C. with stirring, unless otherwise noted. Butyrylcholinesterase stock solutions from human serum (Sigma, St. Louis, Mo.) were prepared at 100 U/mL in 0.1 M phosphate buffer, pH 7.4, and stored at −20° C. until use. Hydrolysis was monitored on an 8452A diode array spectrophotometer (Hewlett-Packard). Product peak wavelength absorption was immediately monitored upon addition of compound. Absorbances for complete hydrolysis were determined when there were no further detectable changes. […] All hydrolysis assays were performed in triplicate, and final rate constants are expressed as the mean±SD of the three individually determined rate constants. In some experiments with compound 1, samples were taken at the beginning and end of the assay to verify the hydrolysis product and the completion of the reaction by HPLC. These samples were compared to compounds 1 and 3 on a C18 column eluted with 0.1% TFA in water/acetonitrile. Activity of chymotrypsin (bovine, Worthington Biochemical Co., 190 μg/mL) was verified with 90 μM 4-nitrophenyl acetate in 0.1 M HEPES solution, pH 6.5, at 37° C. with stirring. Hydrolysis product was monitored at 404 nm for 10 min. Activity of proteinase K (from Engyodontium album, Sigma, 165 μg/mL) was verified with 16.5 mg/mL bovine serum albumin in 0.1 M phosphate buffer, pH 7.4, at 37° C. Samples were taken at time point increments up to 2 hours when the reaction reached completion. Samples were analyzed with 12% SDS-PAGE, stained with 0.1% Coomassie Blue.

rd10 mouse = rd10 mouse model of retinal degeneration, intravitreal injection; assay type: in vivo; conditions: intravitreal injection at P15, final concentration ~0.5 mM, euthanized at P25; PBS in the other eye
Method: FIG. 8 is a set of two images of retinal sections from the left eye (left panel) and right eye (right panel) of an rd10 mouse, intravitreally injected with PBS and 5 mM compound 9 (final concentration ^˜0.5 mM), respectively, at P15 and euthanized at P25. Retinas were sectioned at 20 microns, and stained with DAPI. Images are confocal stacks taken very close to the optic nerve. The outer nuclear layers corresponding to photoreceptor cells are shown with white brackets.
The rd1 mouse is a newer designation for the classic rd mouse, which harbors a nonsense mutation in the PDE6B gene. […] The rd phenotype has been studied for many years, and allows for more rapid assessment of protection strategies. However, the onset of rod photoreceptor death overlaps with the later stages of development and synaptogenesis, making it difficult to distinguish between the primary effects of rod degeneration and the consequences of abnormal neural development. The rd10 phenotype is more reminiscent of typical human RP.
In separate experiments on adult wild-type mice, the ERG a and b waves were blocked during a similar 10-day treatment, as expected for a concentration in excess of that required to completely block CNG channels. In the rd10 mouse some degeneration was probably underway before the treatment began.

| Compound | state dependence of block (KD vs fraction of closed channels) [1] | hydrolysis products with chymotrypsin (chymotrypsin) | hydrolysis products with proteinase K (proteinase K) | neuroprotection of the photoreceptor layer (rd10 mouse) |
| --- | --- | --- | --- | --- |
| CCCCCCCCNc1ccc(C(=O)OCCN(C)C)cc1 [Compound 5, 2-(Dimethylamino)ethyl 4-(Octylamino)benzoate, reference compound] | better fit the results expected of a closed channel blocker | – | – | – |
| CCCCNc1ccc(C(=S)NCCN(C)C)cc1 [Compound 8, 4-(Butylamino)-N-(2-(dimethylamino)ethyl)benzothioamide] | better fit the results expected of a closed channel blocker | not able to generate any detectable hydrolysis products | not able to generate any detectable hydrolysis products | – |
| CCCCCCCCNc1ccc(C(=S)NCCN(C)C)cc1 [Compound 9, 4-(Octylamino)-N-(2-(dimethylamino)ethyl)benzothioamide] | better fit the results expected of a closed channel blocker | not able to generate any detectable hydrolysis products | not able to generate any detectable hydrolysis products | striking neuroprotection of the photoreceptor layer |
